Where two headings read alike, the source gives them in different places.
Assays:
[1] = test system: tibialis muscle; test: Neuromuscular block in anesthetized cats (electrically stimulated peroneal nerve, tibialis muscle contractions); type: in vivo; conditions: for Activity period: i.v., time between first appearance of the effect and restoration of normal muscle contractions; for ED50: i.v. dose reducing the contractions to half of their original values, 4 doses
Procedure: The potency and the activity period of the compounds according to the invention were tested on anesthesized cats and alert dogs. On anesthesized cats the peroneal nerve was electrically stimulated and the corresponding contractions of the tibialis muscle was registrated. The i.v. doses of the various test compounds which reduced the contractions to half of their original values were determined (ED50 -values). In the attached Table I the ED50 -values and the corresponding activity periods are shown, the term "activity period" is intended to mean the time interval between the first appearance of the effect of the test compounds and the restoration of the normal muscle contractions. For each test compound 4 doses were used and for each dose 6 animals were examined. As a reference compound suxamethonium was used, which is a known compound widely used as a neuromuscular blocking agent having a short activity period.

[2] = test system: muscle relaxation; test: Total muscle relaxation in alert dogs; type: in vivo; conditions: for Activity period: time between administration and disappearance of the activity; for Time until the max. effect: time between administration and total muscle relaxation
Procedure: To alert dogs (6 animals for each test compound) four doses causing a total muscle relaxation were administered and the time between the administration and the total muscle relaxation as well as the time between the administration and the disappearance of the activity was measured.

[3] = Dose 100 (unit not printed), listed as 3 β-Pyrrolidino-17a-methyl-17a-aza-D-homo-5 α-androstane-di-methobromide
[4] = Dose 100 (unit not printed), listed as 3 β-Pyrrolidino-17a-methyl-17a-aza-D-homo-5α -androstane-di-methoiodide

C[C@]12CC[C@@H]([N+]3(C)CCCC3)C[C@@H]1CC[C@@H]1[C@@H]2CC[C@@]2(C)[C@H]1CCC[N+]2(C)C [3 α-Pyrrolidino-17a-methyl-17a-aza-D-homo-5α-androstane-di-m] [3α-Pyrrolidino-17a-methyl-17a-aza-D-homo-5α-androstane dimethobromide]
Activity period [1]: 11.2 min
Activity period ([2]; Dose 100 (unit not given)): 8.6 min
Time until the max. effect ([2]; Dose 100 (unit not given)): 18 s

C[C@]12CC[C@H]([N+]3(C)CCCC3)C[C@@H]1CC[C@@H]1[C@@H]2CC[C@@]2(C)[C@H]1CCC[N+]2(C)C [3 β-Pyrrolidino-17a-methyl-17a-aza-D-homo-5α-androstane-di-m] [3β-Pyrrolidino-17a-methyl-17a-aza-D-homo-5α-androstane dimethobromide]
Activity period [1]: 13.0 min
Activity period [2, 3]: 9.5 min
Time until the max. effect [2, 3]: 21 s

C[C@]12CC[C@@H]([N+]3(C)CCCC3)C[C@@H]1CC[C@@H]1[C@@H]2CC[C@@]2(C)[C@H]1CCC[N+]2(C)C [3α-Pyrrolidino-17a-methyl-17a-aza-D-homo-5α-androstane dimethobromide]
ED50 ([1]; Felis catus, iv): 0.1 mg/kg

C[N+](C)(C)CCOC(=O)CCC(=O)OCC[N+](C)(C)C [Suxamethonium, reference compound]
ED50 ([1]; Felis catus, iv, read-out: ED50): 0.06 mg/kg
Activity period [1]: 11.0 min
Activity period ([2]; Dose 100 (unit not given)): 10.3 min
Time until the max. effect ([2]; Dose 100 (unit not given)): 16 s

C[C@]12CC[C@H]([N+]3(C)CCCC3)C[C@@H]1CC[C@@H]1[C@@H]2CC[C@@]2(C)[C@H]1CCC[N+]2(C)C [3 β-Pyrrolidino-17a-methyl-17a-aza-D-homo-5α-androstane-di-m] [3β-Pyrrolidino-17a-methyl-17a-aza-D-homo-5α-androstane dimethoiodide]
ED50 [1]: 0.105 mg/kg
Activity period [1]: 12.6 min
Activity period [2, 4]: 8.8 min
Time until the max. effect [2, 4]: 17 s

C[C@]12CC[C@@H]([N+]3(C)CCCC3)C[C@@H]1CC[C@@H]1[C@@H]2CC[C@@]2(C)[C@H]1CCC[N+]2(C)C [3 αPyrrolidino-17a-methyl-17a-aza-D-homo-5α-androstane-di-me] [3α-Pyrrolidino-17a-methyl-17a-aza-D-homo-5α-androstane dimethoiodide]
ED50 [1]: 0.12 mg/kg
Activity period [1]: 12.4 min
Activity period ([2]; Dose 100 (unit not given)): 8.5 min
Time until the max. effect ([2]; Dose 100 (unit not given)): 19 s

C[C@]12CC[C@H]([N+]3(C)CCCC3)C[C@@H]1CC[C@@H]1[C@@H]2CC[C@@]2(C)[C@H]1CCC[N+]2(C)C [3β-Pyrrolidino-17a-methyl-17a-aza-D-homo-5α-androstane dimethobromide]
ED50 ([1]; Felis catus, iv): 0.125 mg/kg
